These results are taken from patent US8703825B2, “Compounds, use thereof as medicaments, and method of preparation thereof” (Universite de Lorraine, priority 2008, dated 2014).

Holding throughout (assay type): cell-based
Assay [1] has as its system Enterococcus faecalis ATCC 29212. In words: MIC by microdilution in liquid medium (CLSI / CA-SFM). The note with it: ATCC29212, E. faecalis ATCC 29212, reference strain, read-out: MIC. From the text: (§1) According to the joint recommendations: • of the “Comite de l′Antibiogramme de la Société Française de Microbiologie” (Antibiogram Committee of the French Society of Microbiology) (CA-SFM) [CA-SFM. Communique 2007 (Edition of January 2007). http://www.sfm.asso.fr] and, • of the “Clinical and Laboratory Standards Institute” (CLSI, formerly “National Committee for Clinical Laboratory Standards” or NCCLS) [NCCLS. 2003. Methods for dilution antimicrobial susceptibility tests for bacteria that grow aerobically; approved standard M7-A6, 6th ed. National Committee for Clinical Laboratory Standards, Wayne, Pa., USA.], five reference bacterial strains were used for the study: Escherichia coli ATCC 25922, Pseudomonas aeruginosa ATCC 27853, Staphylococcus aureus ATCC 25923 & ATCC 29213 and Enterococcus faecalis ATCC 29212.
(§2) The bacteria are cultivated either on Mueller-Hinton agar (Difco, 225250), or in Mueller-Hinton broth (Difco, 275730), at 35° C. [Grare M, Mourer M, Fontanay S, Regnouf-de-Vains J B, Finance C, Duval R E. In vitro activity of para-guanidinoethylcalix[4]arene against susceptible and antibiotic-resistant Gram-negative and Gram-positive bacteria. J. Antimicrob Chemother. 2007; 60: 575-81].
(§3) The various molecules tested were prepared in the form of aqueous solution at 10^−2 mol/L. The solutions used for the biological tests are freshly prepared, and stored for a week at most, at 4° C. The solutions are filtered through a filter with pores of 0.22 μm (Millex®GP; 0.22 μm; Millipore; France) before each test.
(§4) Procedure for determining the Minimum Inhibitory Concentration (MIC)
(§5) The minimum inhibitory concentrations (MIC) were determined by the standardized method of microdilution in liquid medium (96-well microplate, U-shaped bottom, Greiner), in Mueller-Hinton broth, with a final inoculum of 10^5-10^6 CFU/mL, depending on the bacterial species, in accordance with the recommendations of the CLSI.
(§6) For the determination of MIC, bacterial suspensions are prepared from an isolated colony, taken from a Mueller-Hinton agar, taken up in 5 mL of Mueller-Hinton broth. After 24 h of growth, the bacterial suspensions are diluted in sterile distilled water in order to obtain an inoculum of 10^5-10^6 CFU/mL. The purity of the bacterial suspensions is tested by isolation on agar and Gram staining.
(§7) The results are the mean value of 4 independent experiments.
In general terms: In broth dilution the organism is exposed to a series of concentrations in liquid medium.

The subject of assay [2] is Escherichia coli ATCC 25922. The assay is described as above.
Source text: as §1, §2, §3, §4, §5, §6, §7

Assay [3] relates to Pseudomonas aeruginosa ATCC 27853. Described as above. The note with it: ATCC27853, P. aeruginosa ATCC 27853, reference strain, read-out: MIC.
Source text: as §1, §2, §3, §4, §5, §6, §7

The subject of assay [4] is Staphylococcus aureus ATCC 25923. The description is as above.
Source text: as §1, §2, §3, §4, §5, §6, §7

Assay [5] deals with Staphylococcus aureus ATCC 29213. Described as above. The note with it: Staphylococcus aureus, ATCC29213, S. aureus ATCC 29213, reference strain; read-out: MIC.
Source text: as §1, §2, §3, §4, §5, §6, §7

For assay [6], the system named is Gram-positive and Gram-negative bacteria (reference strains and clinical isolates). In words: Antibacterial activity overall (MIC determination). The note with it: summary of MIC results.
Source text: as §1
The study also included 5 clinical isolates, obtained from rectal samples and/or from haemoculture: • […] E. coli (EcR1), • methicillin-resistant S. aureus (mecA gene) (SaR1), • vancomycin-resistant E. faecium (vanB gene) (EfR1), • E. faecalis resistant to teicoplanin and to vancomycin (vanA gene) (EfR2), and • P. aeruginosa overexpressing an efflux pump (PaRl).
as §4, §5, §6, §7

[7] abbreviates: Escherichia coli, ATCC25922, E. coli ATCC 25922, reference strain, read-out: MIC.
The mark [8] stands for this setting: Staphylococcus aureus, ATCC25923, S. aureus ATCC 25923, reference strain, read-out: MIC.
[9] abbreviates: S. aureus ATCC 25923, reference strain.

Converted amounts (≈) assume the structure as drawn. Like-named read-outs stand apart in the source and are kept apart here.

Regarding `N=C(N)NCCc1ccc(OCOc2ccc(CCNC(=N)N)cc2)cc1` [compound 1, 1,1-bis(4-(2-guanidinoethyl)phenoxy)methane], the MIC in assay [1] amounted to 256 µg/mL (≈ 691 µM); in assay [2] (setting [7]), 64 µg/mL (≈ 173 µM); in assay [3] it was 64 µg/mL (≈ 173 µM); in assay [4] (setting [8]), 16 µg/mL (≈ 43.2 µM); in assay [5] it was 8 µg/mL (≈ 21.6 µM).
Consider `N=C(N)NCCc1ccc(OCCCCCCCOc2ccc(CCNC(=N)N)cc2)cc1` [compound 7, 1,7-bis(4-(2-guanidinoethyl)phenoxy)heptane], for which the MIC in assay [1] was 8 µg/mL (≈ 17.6 µM); in assay [2] (setting [7]) it was 4 µg/mL (≈ 8.8 µM); in assay [3], 16 µg/mL (≈ 35.2 µM); in assay [4] (setting [8]) it was 1 µg/mL (≈ 2.2 µM); in assay [5], 1 µg/mL (≈ 2.2 µM).
Turning to `N=C(N)NCCc1ccc(OCCCOc2ccc(CCNC(=N)N)cc2)cc1` [compound 3, 1,3-bis(4-(2-guanidinoethyl)phenoxy)propane], the MIC came to 128 µg/mL (≈ 321 µM) in assay [1]; 32 µg/mL (≈ 80.3 µM) in assay [2] (setting [7]); 64 µg/mL (≈ 161 µM) in assay [3]; 4 µg/mL (≈ 10 µM) in assay [4] (setting [8]); 2 µg/mL (≈ 5.02 µM) in assay [5].
Regarding `N=C(N)CCc1ccc(OCCCCOc2ccc(CCC(=N)N)cc2)cc1` [compound 104, 1,4-bis(4-(2-(amidino)ethyl)phenoxy)butane], the MIC in assay [1] is 256 µg/mL (≈ 669 µM); in assay [2] (setting [7]) it was 64 µg/mL (≈ 167 µM); in assay [3], 64 µg/mL (≈ 167 µM); in assay [4] (setting [8]), 2 µg/mL (≈ 5.23 µM); in assay [5], 2 µg/mL (≈ 5.23 µM).
For `N=C(N)NCCc1ccc(OCCCCOc2ccc(CCNC(=N)N)cc2)cc1` [compound 4, 1,4-bis(4-(2-guanidinoethyl)phenoxy)butane], the MIC stood at 64 µg/mL (≈ 155 µM) in assay [1]; 32 µg/mL (≈ 77.6 µM) in assay [2] (setting [7]); 64 µg/mL (≈ 155 µM) in assay [3]; 2 µg/mL (≈ 4.85 µM) in assay [4] (setting [8]); 1 µg/mL (≈ 2.42 µM) in assay [5].
In the case of `N=C(N)CCc1ccc(OCCCCCCCOc2ccc(CCC(=N)N)cc2)cc1` [compound 107, 1,7-bis(4-(2-(amidino)ethyl)phenoxy)heptane], the MIC in assay [1] was 32 µg/mL (≈ 75.4 µM); in assay [2] (setting [7]) it was 64 µg/mL (≈ 151 µM); in assay [3], 64 µg/mL (≈ 151 µM).
On to `N=C(N)CCc1ccc(OCCCCCCOc2ccc(CCC(=N)N)cc2)cc1` [compound 106, 1,6-bis(4-(2-(amidino)ethyl)phenoxy)hexane], for which the MIC was 32 µg/mL (≈ 77.9 µM) in assay [1]; 32 µg/mL (≈ 77.9 µM) in assay [2] (setting [7]); 32 µg/mL (≈ 77.9 µM) in assay [3]; 2 (1) mg/L in assay [4] (setting [9]); 4 µg/mL (≈ 9.74 µM) in assay [4] (setting [8]); 2 µg/mL (≈ 4.87 µM) in assay [5].
In the case of `N=C(N)CCc1ccc(OCCCOc2ccc(CCC(=N)N)cc2)cc1` [compound 103, 1,3-bis(4-(2-(amidino)ethyl)phenoxy)propane], the MIC in assay [1] was determined as 256 µg/mL (≈ 695 µM); in assay [2] (setting [7]) it was 128 µg/mL (≈ 347 µM); in assay [3], 128 µg/mL (≈ 347 µM); in assay [4] (setting [8]), 32 µg/mL (≈ 86.8 µM); in assay [5], 32 µg/mL (≈ 86.8 µM).
With `N=C(N)CCc1ccc(OCCCCCCCCOc2ccc(CCC(=N)N)cc2)cc1` [compound 108, 1,8-bis(4-(2-(amidino)ethyl)phenoxy)octane], the MIC in assay [1] was 8 µg/mL (≈ 18.2 µM); in assay [2] (setting [7]) it was 32 µg/mL (≈ 73 µM); in assay [3] it was 16 µg/mL (≈ 36.5 µM); in assay [4] (setting [9]), 4 (1) mg/L; in assay [4] (setting [8]), 2 µg/mL (≈ 4.56 µM).
As for `N=C(N)CCc1ccc(OCCCCCCCCCCOc2ccc(CCC(=N)N)cc2)cc1` [compound 110, 1,10-bis(4-(2-(amidino)ethyl)phenoxy)decane], the MIC was 2 µg/mL (≈ 4.29 µM) in assay [1]; 8 (1) mg/L in assay [2] (E. coli ATCC 25922, reference strain); 4 µg/mL (≈ 8.57 µM) in assay [2] (setting [7]); 16 µg/mL (≈ 34.3 µM) in assay [3]; 1 µg/mL (≈ 2.14 µM) in assay [4] (setting [8]); 1 µg/mL (≈ 2.14 µM) in assay [5].
Regarding `N=C(N)NCCc1ccc(OCCCCCCCCCCOc2ccc(CCNC(=N)N)cc2)cc1` [compound 10, 1,10-bis(4-(2-guanidinoethyl)phenoxy)decane], the MIC in assay [1] was below 1 µg/mL; in assay [2] (setting [7]) it was 1 to 2 µg/mL (≈ 2.01 to 4.03 µM); in assay [3], 8 µg/mL (≈ 16.1 µM); in assay [4] (setting [8]), below 1 µg/mL; in assay [5], below 1 µg/mL.
Regarding `N=C(N)NCCc1ccc(OCCCCCCCCCOc2ccc(CCNC(=N)N)cc2)cc1` [compound 9, 1,9-bis(4-(2-guanidinoethyl)phenoxy)nonane], the MIC was 1 to 2 µg/mL (≈ 2.07 to 4.14 µM) in assay [1]; 1 µg/mL (≈ 2.07 µM) in assay [2] (setting [7]); 4 µg/mL (≈ 8.29 µM) in assay [3]; 0.25 µg/mL (≈ 0.518 µM) in assay [4] (setting [8]); 0.25 µg/mL (≈ 0.518 µM) in assay [5]. For the same compound, the “antibacterial activity (in words)” value in assay [6] is reported as “very good activities on the 5 reference strains tested”.
